Experimental data published in patent US20140094486A1, “SOLID STATE FORMS OF HIV INHIBITOR” (Gilead Sciences, Inc., priority 2011, published 2014).

How the values were obtained:
Assay type in all cases: physicochemical
solubility = assay: solubility
[1] = intrinsic dissolution rate; settings: pH 2.0 buffer
[2] = physical and chemical stability under stress conditions
[3] = moisture sorption/desorption measurements; settings: based on moisture sorption/desorption measurements

## Cc1nc2ccccc2c(-c2ccc3c4c(ccnc24)CCO3)c1[C@H](OC(C)(C)C)C(=O)O (atropisomer, axis not shown) [Type A]
solubility; pH 2, simulated gastric fluid
  solubility: > 24 mg/mL
solubility; pH 4.5, aqueous buffer
  solubility: > 24 mg/mL
solubility; pH 6.8, aqueous buffer
  solubility: > 24 mg/mL
[1]
  intrinsic dissolution rate: 4528 μg/[cm^2×min]
[2]
  physical and chemical stability: exhibits physical and chemical stability
[3]
  hygroscopicity: non-hygroscopic
